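96-well plates; 48 h exposure; 5 concentrations. Endpoints by linear interpolation between flanking doses. Not reached: highest tested concentration assigned. At the GI50, growth is halved. At the TGI there is no net growth.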
Tests used:
Experiment in all cases: NCI anticancer screen, dose series, 48 h
HS 578T breast = test system: HS 578T breast
T-47D breast = test system: T-47D breast
K-562 leukemia = test system: K-562 leukemia
MALME-3M melanoma = test system: MALME-3M melanoma
OVCAR-3 ovarian = test system: OVCAR-3 ovarian
TK-10 renal = test system: TK-10 renal
DU-145 prostate = test system: DU-145 prostate
OVCAR-4 ovarian = test system: OVCAR-4 ovarian
RPMI-8226 leukemia = test system: RPMI-8226 leukemia
CCRF-CEM leukemia = test system: CCRF-CEM leukemia
SW-620 colon = test system: SW-620 colon
HCT-15 colon = test system: HCT-15 colon
SNB-75 CNS = test system: SNB-75 CNS
SF-539 CNS = test system: SF-539 CNS
CAKI-1 renal = test system: CAKI-1 renal
NCI/ADR-RES ovarian = test system: NCI/ADR-RES ovarian
HCT-116 colon = test system: HCT-116 colon
MDA-MB-231 breast = test system: MDA-MB-231 breast
OVCAR-8 ovarian = test system: OVCAR-8 ovarian
OVCAR-5 ovarian = test system: OVCAR-5 ovarian
MCF7 breast = test system: MCF7 breast
PC-3 prostate = test system: PC-3 prostate
SR leukemia = test system: SR leukemia
MOLT-4 leukemia = test system: MOLT-4 leukemia
SF-268 CNS = test system: SF-268 CNS
HCC-2998 colon = test system: HCC-2998 colon
HT29 colon = test system: HT29 colon
SK-MEL-2 melanoma = test system: SK-MEL-2 melanoma
SF-295 CNS = test system: SF-295 CNS
SN12C renal = test system: SN12C renal
UO-31 renal = test system: UO-31 renal
NCI-H460 lung = test system: NCI-H460 lung
A549 NSCLC = test system: A549 NSCLC
ACHN renal = test system: ACHN renal
HOP-92 NSCLC = test system: HOP-92 NSCLC
LOX IMVI melanoma = test system: LOX IMVI melanoma
NCI-H226 lung = test system: NCI-H226 lung
KM12 colon = test system: KM12 colon
HOP-62 NSCLC = test system: HOP-62 NSCLC
NCI-H23 lung = test system: NCI-H23 lung
M14 melanoma = test system: M14 melanoma
COLO 205 colon = test system: COLO 205 colon
IGROV1 ovarian = test system: IGROV1 ovarian
U251 CNS = test system: U251 CNS
SK-MEL-28 melanoma = test system: SK-MEL-28 melanoma
MDA-MB-435 = test system: MDA-MB-435
SNB-19 CNS = test system: SNB-19 CNS
A498 renal = test system: A498 renal
SK-OV-3 ovarian = test system: SK-OV-3 ovarian
786-0 renal = test system: 786-0 renal
UACC-257 melanoma = test system: UACC-257 melanoma
SK-MEL-5 melanoma = test system: SK-MEL-5 melanoma
UACC-62 melanoma = test system: UACC-62 melanoma
HL-60(TB) leukemia = test system: HL-60(TB) leukemia

COc1cc(/C=C2\CCCC3=C2NC(C)=NC3c2cc(OC)c(OC)c(OC)c2)cc(OC)c1OC (centres undefined) was tested, and the GI50 (HS 578T breast) was 5.16 µM, the TGI (HS 578T breast) was > 100 µM and the GI50 (T-47D breast) was 3.25 µM. The TGI (T-47D breast) was > 100 µM, the GI50 (K-562 leukemia) was 0.917 µM and the TGI (K-562 leukemia) was > 100 µM. For the same compound, the GI50 (MALME-3M melanoma) was 1.6 µM, the TGI (MALME-3M melanoma) was 4.76 µM and the GI50 (OVCAR-3 ovarian) was 2.65 µM. The TGI (OVCAR-3 ovarian) was > 100 µM, the GI50 (TK-10 renal) was 4.33 µM and the TGI (TK-10 renal) was > 100 µM. The GI50 (DU-145 prostate) was 1.53 µM, the TGI (DU-145 prostate) was > 100 µM and the GI50 (OVCAR-4 ovarian) was 2.39 µM. The TGI (OVCAR-4 ovarian) was > 100 µM, the GI50 (RPMI-8226 leukemia) was 0.536 µM and the TGI (RPMI-8226 leukemia) was 4.67 µM. The GI50 (CCRF-CEM leukemia) was 0.838 µM, the TGI (CCRF-CEM leukemia) was > 100 µM and the GI50 (SW-620 colon) was 1.45 µM. The TGI (SW-620 colon) was > 100 µM, the GI50 (HCT-15 colon) was 1.03 µM and the TGI (HCT-15 colon) was > 100 µM. For the same compound, the GI50 (SNB-75 CNS) was > 100 µM, the TGI (SNB-75 CNS) was > 100 µM and the GI50 (SF-539 CNS) was 1.55 µM. The TGI (SF-539 CNS) was > 100 µM, the GI50 (CAKI-1 renal) was 2.61 µM and the TGI (CAKI-1 renal) was 22.9 µM. For the same compound, the GI50 (NCI/ADR-RES ovarian) was 0.505 µM, the TGI (NCI/ADR-RES ovarian) was > 100 µM and the GI50 (HCT-116 colon) was 0.46 µM. The TGI (HCT-116 colon) was 1.76 µM, the GI50 (MDA-MB-231 breast) was 3.01 µM and the TGI (MDA-MB-231 breast) was > 100 µM. For the same compound, the GI50 (OVCAR-8 ovarian) was 0.372 µM, the TGI (OVCAR-8 ovarian) was > 100 µM and the GI50 (OVCAR-5 ovarian) was 3.54 µM. The TGI (OVCAR-5 ovarian) was > 100 µM, the GI50 (MCF7 breast) was 1.45 µM and the TGI (MCF7 breast) was > 100 µM. The GI50 (PC-3 prostate) was 2.05 µM, the TGI (PC-3 prostate) was > 100 µM and the GI50 (SR leukemia) was 0.436 µM. The TGI (SR leukemia) was 7.66 µM, the GI50 (MOLT-4 leukemia) was 1.93 µM and the TGI (MOLT-4 leukemia) was > 100 µM. The GI50 (SF-268 CNS) was 1.88 µM and the TGI (SF-268 CNS) was > 100 µM.
For C[C@H](C(=O)N[C@@H](Cc1ccc(-c2ccccc2)cc1)C(=O)NC1CC(C)(C)NC(C)(C)C1)c1ccc(-c2ccccc2)c(F)c1, the GI50 (HCC-2998 colon) was 0.813 µM, the TGI (HCC-2998 colon) was > 100 µM and the GI50 (DU-145 prostate) was 0.377 µM. The TGI (DU-145 prostate) was 1.54 µM, the GI50 (NCI/ADR-RES ovarian) was 1.88 µM and the TGI (NCI/ADR-RES ovarian) was 4.47 µM.
COc1ccc(-c2nnc(COc3ccc(NC(=O)Nc4ccc(Cl)c(C(F)(F)F)c4)cc3F)o2)cc1 gave a GI50 (HS 578T breast) of 3.26 µM, a TGI (HS 578T breast) of 18.1 µM and a GI50 (HT29 colon) of 3.57 µM. For the same compound, the TGI (HT29 colon) was 22.4 µM, the GI50 (T-47D breast) was 3.02 µM and the TGI (T-47D breast) was 14.5 µM. The GI50 (K-562 leukemia) was 3.31 µM, the TGI (K-562 leukemia) was 53.9 µM and the GI50 (MALME-3M melanoma) was 2.72 µM. The TGI (MALME-3M melanoma) was 7.63 µM, the GI50 (SK-MEL-2 melanoma) was 3.61 µM and the TGI (SK-MEL-2 melanoma) was 9.87 µM. The GI50 (SF-295 CNS) was 2.48 µM, the TGI (SF-295 CNS) was 9.06 µM and the GI50 (SN12C renal) was 3.8 µM. The TGI (SN12C renal) was 56 µM, the GI50 (OVCAR-3 ovarian) was 3.02 µM and the TGI (OVCAR-3 ovarian) was 10.5 µM. It also gave a GI50 (HCC-2998 colon) of 4.86 µM, a TGI (HCC-2998 colon) of 53.1 µM and a GI50 (UO-31 renal) of 2.88 µM. For the same compound, the TGI (UO-31 renal) was 16.6 µM, the GI50 (TK-10 renal) was 9.09 µM and the TGI (TK-10 renal) was 41.4 µM. For the same compound, the GI50 (DU-145 prostate) was 3.1 µM, the TGI (DU-145 prostate) was 11.1 µM and the GI50 (OVCAR-4 ovarian) was 2.93 µM. For the same compound, the TGI (OVCAR-4 ovarian) was 13.7 µM, the GI50 (NCI-H460 lung) was 2.26 µM and the TGI (NCI-H460 lung) was 5.56 µM. For the same compound, the GI50 (RPMI-8226 leukemia) was 1.53 µM, the TGI (RPMI-8226 leukemia) was 5 µM and the GI50 (A549 NSCLC) was 3.25 µM. The TGI (A549 NSCLC) was 18.7 µM, the GI50 (CCRF-CEM leukemia) was 3.06 µM and the TGI (CCRF-CEM leukemia) was 40 µM. The GI50 (SW-620 colon) was 3.42 µM, the TGI (SW-620 colon) was 27.2 µM and the GI50 (ACHN renal) was 2.55 µM. It also gave a TGI (ACHN renal) of 10.7 µM, a GI50 (HCT-15 colon) of 2.74 µM and a TGI (HCT-15 colon) of 33 µM. For the same compound, the GI50 (SNB-75 CNS) was 1.48 µM, the TGI (SNB-75 CNS) was 8.36 µM and the GI50 (HOP-92 NSCLC) was 1.87 µM. The TGI (HOP-92 NSCLC) was 5.45 µM, the GI50 (SF-539 CNS) was 5.01 µM and the TGI (SF-539 CNS) was 19.6 µM. For the same compound, the GI50 (LOX IMVI melanoma) was 2.93 µM, the TGI (LOX IMVI melanoma) was > 100 µM and the GI50 (NCI-H226 lung) was 4.93 µM. It also gave a TGI (NCI-H226 lung) of 37.3 µM, a GI50 (CAKI-1 renal) of 4.07 µM and a TGI (CAKI-1 renal) of 29.2 µM. It also gave a GI50 (KM12 colon) of 2.31 µM, a TGI (KM12 colon) of 11 µM and a GI50 (HOP-62 NSCLC) of 5.07 µM. It also gave a TGI (HOP-62 NSCLC) of 21.8 µM, a GI50 (NCI-H23 lung) of 3.12 µM and a TGI (NCI-H23 lung) of 14.6 µM. It also gave a GI50 (M14 melanoma) of 3.13 µM, a TGI (M14 melanoma) of 16.5 µM and a GI50 (COLO 205 colon) of 2.02 µM. It also gave a TGI (COLO 205 colon) of 5.06 µM, a GI50 (IGROV1 ovarian) of 4.77 µM and a TGI (IGROV1 ovarian) of 26.4 µM. For the same compound, the GI50 (NCI/ADR-RES ovarian) was 3.28 µM, the TGI (NCI/ADR-RES ovarian) was > 100 µM and the GI50 (U251 CNS) was 1.93 µM. For the same compound, the TGI (U251 CNS) was 5.7 µM, the GI50 (HCT-116 colon) was 2.49 µM and the TGI (HCT-116 colon) was 11.7 µM. For the same compound, the GI50 (MDA-MB-231 breast) was 1.91 µM, the TGI (MDA-MB-231 breast) was 8.72 µM and the GI50 (OVCAR-8 ovarian) was 3.12 µM. The TGI (OVCAR-8 ovarian) was 15.8 µM, the GI50 (SK-MEL-28 melanoma) was 5.27 µM and the TGI (SK-MEL-28 melanoma) was 54.6 µM. For the same compound, the GI50 (MDA-MB-435) was 3.8 µM, the TGI (MDA-MB-435) was 36.9 µM and the GI50 (SNB-19 CNS) was 4.02 µM. It also gave a TGI (SNB-19 CNS) of 24.2 µM, a GI50 (A498 renal) of 3.19 µM and a TGI (A498 renal) of 20 µM. The GI50 (SK-OV-3 ovarian) was 5.86 µM, the TGI (SK-OV-3 ovarian) was 31.5 µM and the GI50 (OVCAR-5 ovarian) was 10.9 µM. It also gave a TGI (OVCAR-5 ovarian) of 71.4 µM, a GI50 (MCF7 breast) of 3.03 µM and a TGI (MCF7 breast) of 14.3 µM. The GI50 (786-0 renal) was 3.24 µM, the TGI (786-0 renal) was 12 µM and the GI50 (PC-3 prostate) was 1.84 µM. The TGI (PC-3 prostate) was 12.7 µM, the GI50 (UACC-257 melanoma) was 2.41 µM and the TGI (UACC-257 melanoma) was 11.2 µM. For the same compound, the GI50 (SR leukemia) was 1.39 µM, the TGI (SR leukemia) was 4.09 µM and the GI50 (SK-MEL-5 melanoma) was 2.1 µM. It also gave a TGI (SK-MEL-5 melanoma) of 5.36 µM, a GI50 (UACC-62 melanoma) of 3.12 µM and a TGI (UACC-62 melanoma) of 16.4 µM. It also gave a GI50 (HL-60(TB) leukemia) of 2.41 µM, a TGI (HL-60(TB) leukemia) of 6.12 µM and a GI50 (MOLT-4 leukemia) of 2.39 µM. It also gave a TGI (MOLT-4 leukemia) of 11.6 µM, a GI50 (SF-268 CNS) of 6.01 µM and a TGI (SF-268 CNS) of 36.1 µM.
